Consider two molecules from patent US12514865B2, “Biomaterial-based antigen free vaccine and the use thereof” (President and Fellows of Harvard College, priority 2019, dated 2026).

Series [1] concerns 4T1 cells. The series can be described thus: In vitro immunogenic cell death assay. Type of series: cell-based. To be noted: 24 h.
Procedure: 4T1 cells were incubated with different concentrations of Dox at 37° C. for 24 h. Cells without drug treatment were used as controls. Cells were washed with PBS for three times, collected, and stained with FITC-conjugated anti-CD47, Alex Fluor 647-conjugated anti-calreticulin, and fixable viability dye efluor780 for 20 min prior to FACS analyses.
Series [2] in a line: Release of Dox-iRGD or Dox from pore-forming alginate gels. Type of series: physicochemical. To be noted: in vitro, DMEM 37 °C.
The subject of series [3] is 4T1 tumors. Kind of series: Tumor penetration study of Dox-iRGD. Type of series: in vivo, Balb/c mice. To be noted: released from peritumorally injected gels with GM-CSF, confocal imaging.
Procedure: 4T1 cells (0.6 million) in HBSS buffer were subcutaneously injected into the right flank of Balb/c mice. After 5 days, pore-forming alginate gels loaded with GM-CSF (3 μg)+Dox-iRGD (50 μg in Dox-equivalent) or GM-CSF+Dox-iRDG or GM-CSF+Dox were injected next to the tumors. After 48 h, gels and tumors were harvested and frozen with O.C.T. compound, and sectioned with a thickness of 8 μm. To determine the tumor penetration of drugs, tissue sections were stained with DAPI for 10 min and imaged under a confocal microscope.
Series [4] can be described thus: In vitro encapsulation and release of biomolecules from the cryogel vaccine. Type of series: physicochemical.
Procedure: To determine the incorporation efficiency and release kinetics of Cpg-odn, GM-CSF and antigen from cryogel vaccines, gels were incubated in lml of sterile PBS at 37° C. with shaking. Media was replaced periodically. Micro-BCA (Pierce Biotechnology) was used to quantify total protein content. GM-CSF and Cpg-odn released in the supernatant were detected by ELISA (Invitrogen) and OliGreen assay (Invitrogen), respectively. The amount of antigen was determined by subtracting total protein content from the amount of GM-CSF quantified by ELISA.

As to `COc1cccc2c1C(=O)c1c(O)c3c(c(O)c1C2=O)C[C@@](O)(C(=O)CO)C[C@@H]3O[C@H]1C[C@H](N)[C@H](O)[C@H](C)O1` [Dox, doxorubicin], in series [1], the “expression of CD47” value is reported as “increased expression of the anti-phagocytic marker CD47”. Moreover, the cell-surface calreticulin entry in series [1] (0-100 nM) is on record as “upregulated cell-surface calreticulin”. Besides, in series [2], the “released from pore-forming alginate gel within 6 h” value is on record as roughly 30% and the “released from pore-forming alginate gel within 24 h” value is listed as “more than 60%”. The “tumor penetration / accumulation in tumor tissues” value in series [3] is given as “negligible accumulation”.

Take “GM-CSF: cytokine granulocyte-macrophage colony-stimulating factor (PeproTech)”: in series [4] (from cryogel), the “released over the first 5 days in vitro” value was found to be 85%. Besides, the encapsulation efficiency in series [4] (in MA-PEG/MA-alginate vaccine cryogel) came to 87%. In series [4] (in vitro, from cryogel), the “burst release of the loaded amount” value is recorded as “about 8%”.
